Assays:
JIMT-1 xenograft = JIMT-1 xenograft tumor model, cytotoxic APDCs; assay type: in vivo, mice; settings: single intravenous injection 10 mg/kg at day zero
Experimental: Xenograft Tumor Model Experiments for Cytotoxic APDCs
Experiments of xenograft tumor model with cytotoxic APDCs were performed as previously described (Jumbe et al., 2010).

MKN45 = assay: In vitro cytotoxicity assay, MKN45; assay type: cell-based; settings: MKN45, HER2+
Text: (§1) Breast cancer cell line MDA-MB-231 and SK-BR-3, gastric cancer cell line NCI-N87, ovarian cancer cell line SK-OV-3, and pancreatic cancer cell line Capan-1 were purchased from ATCC. Breast cancer cell line JIMT-1 was purchased from Deutsche Sammlung von Mikroorganismen und Zellkulturen (DSMZ, Germany). Gastric cancer cell line MKN45 was purchased from RIKEN. Human umbilical vein endothelial cell line (HUVAC) was purchased from BCRC (Bioresource Collection and Research Center, Hsinchu City, Taiwan).
(§2) Human MDR1 overexpressed NCI-N87 (NCI-N87-hMDR1) cell line was produced by lentiviral vector-mediated gene transduction. Briefly, the lentiviral transfer vector contains both hEF1α promotor-driven hMDR1 coding sequence (CDS) and hPGK promoter-driven EGFP-IRES-Puro bicistronic cassette. The lentivirus was packaged using second-generation lentiviral system in 293T cell line. After transfection, stable NCI-N87-hMDR1 was selected and maintained in puromycin (0.55 μg/mL) containing RPMI-1640 medium. JIMT-1 and MDA-MB-231 were maintained in DMEM supplemented with 10% heat-inactivated fetal bovine serum (FBS). […]
(§3) In vitro cytotoxicity assays were performed as previously described (Boyd and Paull, 1995; Phillips et al., 2008). […] IC50, the half maximal inhibitory concentration, was calculated from dose-response curves which was generated by four-parameter curve fitting.

NCI-N87-hMDR1 = assay: In vitro cytotoxicity assay, MDR1-overexpressing NCI-N87-hMDR1; assay type: cell-based
Experimental: (§4) Human MDR1 overexpressed NCI-N87 (NCI-N87-hMDR1) cell line was produced by lentiviral vector-mediated gene transduction. Briefly, the lentiviral transfer vector contains both hEF1α promotor-driven hMDR1 coding sequence (CDS) and hPGK promoter-driven EGFP-IRES-Puro bicistronic cassette. The lentivirus was packaged using second-generation lentiviral system in 293T cell line. After transfection, stable NCI-N87-hMDR1 was selected and maintained in puromycin (0.55 μg/mL) containing RPMI-1640 medium. JIMT-1 and MDA-MB-231 were maintained in DMEM supplemented with 10% heat-inactivated fetal bovine serum (FBS). NCI-N87, NCI-N87-hMDR1, SK—OV-3, and MKN45 were maintained in RPMI-1640 supplemented with 10% heat-inactivated FBS. SK-BR-3 was maintained in McCoy's 5A supplemented with 10% heat-inactivated FBS. Capan-1 was maintained in IMDM supplemented with 20% heat-inactivated FBS. HUVAC was maintained in M199 supplemented with 25 U/mL heparin, 30 μg/mL ECGS and 10% heat-inactivated FBS. All cell lines were cultured at 37° C. under 5% CO2 atmosphere.
(§5) In Vitro Cytotoxicity Assays of APDCs
as §3

JIMT-1 = assay: In vitro cytotoxicity assay, JIMT-1; assay type: cell-based; settings: JIMT-1, HER2++
Text: as §1, §2, §3

NCI-N87 = assay: In vitro cytotoxicity assay, NCI-N87; assay type: cell-based
Text: as §1, §4, §5, §3

MDA-MB-231 = assay: In vitro cytotoxicity assay, MDA-MB-231; assay type: cell-based; settings: MDA-MB-231, HER2+
Text: as §1, §2, §3

SK-BR-3 = assay: In vitro cytotoxicity assay, SK-BR-3; assay type: cell-based; settings: SK-BR-3, HER2+++
Text: as §1, §2, §3

Capan-1 = assay: In vitro cytotoxicity assay, Capan-1; assay type: cell-based; settings: Capan-1, HER2++
Text: as §1, §2, §3

**Q.** What does the source list for Trastuzumab emtansine [Kadcyla]?
**A.** tumor volume as a function of time (FIG. 1) (JIMT-1 xenograft): significant tumor growth; IC50 (MKN45; Table 2): 52 nM; GI50 (MKN45; Table 3): 107 nM; IC50 (NCI-N87-hMDR1; NCI-N87-hMDR1, Table 4): 2.5 nM; GI50 (NCI-N87-hMDR1; NCI-N87-hMDR1, Table 5): 6.7 nM; NCI-N87/NCI-N87-hMDR1 (folds), GI50 (NCI-N87-hMDR1; ratio of GI50 values, Table 5): 13 folds; IC50 (JIMT-1; Table 2): 14 nM; GI50 (JIMT-1; Table 3): 15 nM; IC50 (NCI-N87; NCI-N87, HER2+++, Table 2): 0.15 nM; GI50 (NCI-N87; NCI-N87, HER2+++, Table 3): 0.24 nM; IC50 (NCI-N87; NCI-N87, Table 4 (MDR1 comparison)): 0.38 nM; GI50 (NCI-N87; NCI-N87, Table 5 (MDR1 comparison)): 0.53 nM; IC50 (MDA-MB-231; Table 2): 62 nM; GI50 (MDA-MB-231; Table 3): 156 nM; IC50 (SK-BR-3; Table 2): 0.06 nM; GI50 (SK-BR-3; Table 3): 0.052 nM; IC50 (Capan-1; Table 2): 86 nM; GI50 (Capan-1; Table 3): 64 nM
